Key:
mutant GCase = settings: in vitro, fibroblasts from Gaucher patients; cited from earlier work
[1] = Storage stress-tests at 80° C. in closed vials (CAD-HPLC, 1H-NMR, XRPD); format: physicochemical
Procedure: In order to obtain insight regarding thermal stability of the four crystalline IFG salts, storage stress-tests at 80° C. over several days were conducted. A sample of the free base (SP245-FB-P4), a fumarate sample (SP245-FUM-P5), a D-tartrate sample (SP245-DTA-P7), an L-tartrate sample (SP245-LTA-P5) and an oxalate sample SP245-OXA-P2 were stored at 80° C. for one, three and seven days in closed vials. Samples were tested by CAD and ^1H-NMR.
CAD-HPLC was performed in order to identify the possible adducts or thermal degradation product that could be generated upon storage under the given conditions. All samples were examined by CAD-HPLC; however, no considerable changes were observed between the starting materials and the stored samples. […] In addition, XRPD was carried out for the seven-day stored crystalline salt samples and the XRPD patterns before and after storage were essentially identical.
NMR spectroscopy was conducted on the seven-day stored samples.

[2] = Dynamic vapor sorption (DVS); format: physicochemical; settings: for additional weight gain upon storage at 95% RH: holding at 95% RH; for mass gain until 95% RH: scanning up to 95% RH; for gain in weight when increasing the RH from 0 to 80%: RH 0 to 80%
Excerpt: The behavior of the IFG quinate salt, sample SP245-QNC-P2, was investigated in the presence of variable water vapor pressure using DVS measurement. The result from the DVS test is presented in FIG. 6 and FIG. 6B as the DVS isotherm of sample SP245-QNC-P2: the change of relative sample weight (red curve) and relative humidity (blue curve) as a function of time.
The SP245-QNC-P2 salt prepared in example 1 is hygroscopic at high relative humidity; i.e., above about 80% RH.
The effect of changes in relative humidity on the IFG fumarate sample SP245-FUM-P4 was studied using DVS.
The IFG fumarate salt is hygroscopic at relative humidities above about 80%.
The effect of changes in relative humidity on the IFG oxalate salt sample SP245-OXA-P1 was studied using DVS.
The oxalate salt is hygroscopic above 80% RH.
The effect of changes in relative humidity on the crystalline IFG tartrate salt sample SP245-DTA-P3 was studied using DVS.

TG-FTIR thermogram = format: physicochemical
Procedure: The obtained crystalline form SP245-QNC-P2 is anhydrous/non-solvated. […] Decomposition is observable above 200° C.
The fumarate salt is a solvent and water-free form. Decomposition is observable above 150° C.

CAD-HPLC Area % ([1]; 80° C., closed vial, 1 day) [%]	CAD-HPLC Area % ([1]; 80° C., closed vial, 3 days) [%]	CAD-HPLC Area % ([1]; 80° C., closed vial, 7 days) [%]	CAD-HPLC Area % ([1]; starting material) [%]	additional weight gain upon storage at 95% RH ([2]; DVS) [%]	mass gain until 95% RH ([2]; DVS) [%]	relative humidity above which the salt is hygroscopic ([2]; DVS)	gain in weight when increasing the RH from 0 to 80% ([2]; DVS)	weight loss when decreasing the relative humidity from 50 to 0% RH ([2]; DVS, RH 50 to 0%) [weight %]	gain in weight at 95% RH compared to the first cycle ([2]; DVS, second cycle) [%]	XRPD of sample recovered after DVS measurement [2]	Decomposition observable above (TG-FTIR thermogram)	gain in weight when increasing the RH from 0 to 75% ([2]; DVS, RH 0 to 75%)	weight change when decreasing the relative humidity from 50 to 0% ([2]; DVS, RH 50 to 0%)	Molecule	effect on activity of mutant GCase (mutant GCase)	NMR after storage compared to the non-stressed sample ([1]; 80° C., seven days)	relative humidity up to which the salt is not hygroscopic ([2]; DVS) [%]	mass change upon increasing the relative humidity from 0% to 70% ([2]; DVS, RH 0% to 70%)
80.2	80.6	80.4	81.1											OC[C@H]1CNC[C@@H](O)[C@@H]1O [SP245-FB-P4, (3R,4R,5R)-3,4-dihydroxy-5-hydroxymethylpiperidine, reference compound]	increase the activity of mutant GCase	several additional NMR signals were observed after storage		
83.9	84.1	85.3	84.3											O=C(O)C(O)C(O)C(=O)O.OC[C@H]1CNC[C@@H](O)[C@@H]1O [SP245-LTA-P5, IFG L-(+)-tartrate]				
83.6	82.9	83.6	85.9	90	30	80 % RH				corresponds to the starting material		no gain in weight	No significant loss in weight	isofagomine oxalate [SP245-OXA-P1]				
				70	20	about 80 % RH	no gain in weight			no form change was observed	above 200 °C		No significant loss in weight	isofagomine quinate [SP245-QNC-P2]				

Molecule	CAD-HPLC Area % ([1]; 80° C., closed vial, 1 day) [%]	CAD-HPLC Area % ([1]; 80° C., closed vial, 3 days) [%]	CAD-HPLC Area % ([1]; 80° C., closed vial, 7 days) [%]	CAD-HPLC Area % ([1]; starting material) [%]	additional weight gain upon storage at 95% RH ([2]; DVS) [%]	mass gain until 95% RH ([2]; DVS) [%]	relative humidity above which the salt is hygroscopic ([2]; DVS)	gain in weight when increasing the RH from 0 to 80% ([2]; DVS)	weight loss when decreasing the relative humidity from 50 to 0% RH ([2]; DVS, RH 50 to 0%) [weight %]	gain in weight at 95% RH compared to the first cycle ([2]; DVS, second cycle) [%]	XRPD of sample recovered after DVS measurement [2]	Decomposition observable above (TG-FTIR thermogram)	gain in weight when increasing the RH from 0 to 75% ([2]; DVS, RH 0 to 75%)	weight change when decreasing the relative humidity from 50 to 0% ([2]; DVS, RH 50 to 0%)	effect on activity of mutant GCase (mutant GCase)	NMR after storage compared to the non-stressed sample ([1]; 80° C., seven days)	relative humidity up to which the salt is not hygroscopic ([2]; DVS) [%]	mass change upon increasing the relative humidity from 0% to 70% ([2]; DVS, RH 0% to 70%)
isofagomine D-(−)-tartrate [SP245-DTA-P3]	85	85.1	85.6	86.3	70	32											70	No mass change
isofagomine fumarate [SP245-FUM-P4]	86.9	87.1	87.8	87.9	47	11	about 80 % RH	no considerable gain in sample mass	< 1	5	correspond to the sample SP245-FUM-P4 used as starting material	above 150 °C						

From US12286400B2, “Isofagomine salts, methods of use and formulations” (TAKEDA PHARMACEUTICAL COMPANY LIMITED, priority 2019, dated 2025)
